Experimental data from the NIST ThermoML archive (doi:10.1021/je800529x).

Settings: Liquid, Drop weight

O=C=O [carbon dioxide] + O
interfacial tension [mN/m]
Settings	2000 kPa	4000 kPa	6000 kPa	8000 kPa	12000 kPa	17400 kPa	27000 kPa
293.15 K	62.4	43.5	34.9	29.1	25.1	23.2	18.9
298.15 K	62.1	45.1	36.2	30.6	26.5	24.9	21.1
299.15 K	61.8	45.6	36.5	30.8	26.9	25	21.3
301.15 K	62	46.1	37.6	32.8	27.4	25.8	22.3
303.15 K	62.1	48.2	39.7	33.5	27.7	26.4	25.7
305.15 K	62.5	49.1	40.7	34.8	28.6	27.4	26.1
307.15 K	61.5	38.2	31.5	27.3	18.5	16.4	16.1
308.15 K	62.1	39.3	31.9	27.4	18.6	16.6	16.3
309.15 K	64.9	39.6	32.1	27.5	19	17.3	16.6
314.15 K	65.2	42.9	33.2	28.5	19.9	17.8	16.9
333.15 K	66.6	52.9	43.1	37.9	31.2	29.4	28.8
348.15 K	66.9	53.2	43.6	38.6	34.5	31.5	29.9
373.15 K	67.7	57.9	47.5	41.7	37.6	32.9	32.1
398.15 K	68.1	58.9	50.5	44.6	39.6	36.1	33.2
